This note sets out measurements from US20210196731A1, “COMPOSITIONS AND METHODS FOR TREATING OCULAR INFLAMMATION AND OCULAR SCARRING” (priority 2018, published 2021).

“Also recorded” adds a separate entry of the source.

One experiment concerns αSMA. Description: Cellular response to individual exogenous ASA-triggered lipid mediators (αSMA western blot). The following applies: 48 hrs. The class given is cell-based, human. On the procedure:
Cells were lysed in lysis buffer (PhosphoSafe Extraction Reagent, Novagen) containing a protease inhibitor cocktail (P2714, Sigma-Aldrich). Crude protein lysate was quantified using a Pierce BCA protein assay kit (ThermoFisher, Mississauga, ON) and 10 ug from each sample was resolved using a Novex WedgeWell 4-20% tris-glycine gel (Invitrogen). Using an iBlot Gel Transfer Device (IB1001, Invitrogen), the separated protein was transferred to a nitrocellulose membrane (1B301001, iBlot Transfer Stack, Invitrogen) which was then blocked with 5% (w/v) bovine serum albumin (Sigma-Aldrich) in Tris buffered saline (TBST) for 1 hour at room temperature. The membranes were incubated overnight at 4° C. with primary antibody diluted in TBST containing 5% BSA (w/vol). Primary antibodies used were as follows: collagen 1 (ab138492, Abcam), αSMA (ab5694, Abcam), MMP9 (ab38898, Abcam), PPARγ (sc-7273, SantaCruz Biotechnology), SMAD2/3 (ab63672, Abcam), pSMAD2/3 (ab63399, Abcam) and GAPDH (sc-47724, Santa Cruz Biotechnology, Inc.). After incubation with primary antibodies, the blots were washed and hybridized with 1:3000 (v/v) dilutions of the appropriate goat anti-rabbit or anti-mouse IgG conjugated with horseradish peroxidase ([…], respectively, both from Bio-Rad Laboratories, Inc.). Visualization was accomplished by applying WesternBright Quantum chemiluminescent reagent (Advansta, Inc.), with GAPDH used as a protein loading control. Imaging and relative densiometric quantification was accomplished using a ChemiDoc MP System (Bio-Rad Laboratories, Inc.) connected to Image Lab (Version 6, Bio-Rad Laboratories, Inc.).
From the lipid mediator secretion assays, we see that exposure to ASA or APHS±a PLA2-a results in the generation of significant quantities of pro-resolving products 5-HETE, 11-HETE, 15-HETE and/or 17-OHDHA. The aim of this experiment was to assess the effects (both individually and in combination) of these lipid mediators at mitigating the induction of αSMA by aqueous humor growth factors. To this end, multiple primary HTCF cell lines were cultured in DMEM w/10% FBS in 6-well culture plates, incubated at 37 C and 5% CO2, until 80% confluent. The culture media was removed, wells washed with PBS, and then fresh DMEM w/0% FBS was added. After 24 hrs of serum starvation, one of 14 experimental treatments were applied for 48 hrs: 1) vehicle control (DMEM w/0% FBS), and 2) AHGFs (DMEM w/0% FBS and 2 ng/ml each of TGFB1, TGFB2, VEGF, CCN2), and 3-5) AHGFs/5-HETE (DMEM w/0% FBS, 2 ng/ml each of TGFB1, TGFB2, VEGF, CCN2, and 10, 100, or 1000 nM of 5-hydroxyeicosatetraenoic acid), and 6-8) AHGFs/11-HETE (DMEM w/0% FBS, 2 ng/ml each of TGFB1, TGFB2, VEGF, CCN2, and 10, 100, or 1000 nM of 11-hydroxyeicosatetraenoic acid), and 9-11) AHGFs/15-HETE (DMEM w/0% FBS, 2 ng/ml each of TGFB1, TGFB2, VEGF, CCN2, and 10, 100, or 1000 nM of 15-hydroxyeicosatetraenoic acid), and 12-14) AHGFs/17-OHDHA (DMEM w/0% FBS, 2 ng/ml each of TGFB1, TGFB2, VEGF, CCN2, and 10, 100, or 1000 nM of 17-hydroxy-docosahexaenoic acid). After 48 hrs exposure cellular protein lysate was collected and assessed by western blot with primary antibodies for αSMA and GAPDH, as described previously.
Background: In western blotting, separated proteins are transferred to a membrane and probed.

In experiment [1] the test system is HTCFs. Description: Lipid Mediator Secretion Assay II (ASA or APHS with and without gentamicin, LC-MS/MS). It is filed as cell-based, human. The following applies: inflammatory cytokine induced HTCFs, gentamicin 250 or 500 μg/ml. On the procedure: To this end, as before, multiple primary HTCF cell lines were cultured in DMEM w/10% FBS in 6-well culture plates, incubated at 37° C. and 5% CO2, until 90% confluent. The culture media was removed, wells washed with PBS, and then fresh DMEM w/0% FBS was added. After 24 hrs of serum starvation, fresh DMEM w/0% FBS was added, this time containing a physiologically relevant inflammation/wound healing induction mixture (1 ng/ml each of: IL-1b, TNFa, IFNγ, TGFb). After 12 hrs incubation, the induction media was removed, the wells were washed with PBS and fresh DMEM w/0% FBS was added containing one of ten experimental treatments for an incubation period of 48 hrs: 1) non-induced control (NIC: received DMEM w/0% FBS instead of the induction media), and 2) CytoM1+TGFB1 (DMEM w/0% FBS and 1 ng/ml each of: IL-1b, TNFa, IFNγ, TGFb), and 3) CytoM1/TGFB1/Gent250 (DMEM w/0% FBS, 1 ng/ml each of TGFB1, TGFB2, VEGF, CCN2 and 250 μg/ml gentamicin), and 4) CytoM1/TGFB1/Gent500 (DMEM w/0% FBS, 1 ng/ml each of TGFB1, TGFB2, VEGF, CCN2 and 500 μg/ml gentamicin), and 5) CytoM1/TGFB1/ASA500 (DMEM w/0% FBS, 1 ng/ml each of TGFB1, TGFB2, VEGF, CCN2, and 500 μg/ml ASA), and 6) CytoM1/TGFB1/ASA500/Gent250 (DMEM w/0% FBS, 1 ng/ml each of TGFB1, TGFB2, VEGF, CCN2, 500 μg/ml ASA and 250 μg/ml gentamicin), and 7) CytoM1/TGFB1/ASA1000 (DMEM w/0% FBS, 1 ng/ml each of TGFB1, TGFB2, VEGF, CCN2 and 1000 μg/ml ASA), and 8) CytoM1/TGFB1/ASA1000/Gent500 (DMEM w/0% FBS, 1 ng/ml each of TGFB1, TGFB2, VEGF, CCN2, 1000 μg/ml ASA, and 500 μg/ml gentamicin), and 9) CytoM1/TGFB1/APHS12 (DMEM w/0% FBS, 1 ng/ml each of TGFB1, TGFB2, VEGF, CCN2 and 12 μg/ml o-(acetoxyphenyl)hept-2-ynyl sulfide (APHS), and 10) CytoM1/TGFB1/APHS12/Gent250 (DMEM w/0% FBS, 1 ng/ml each of TGFB1, TGFB2, VEGF, CCN2, 12 μg/ml o-(acetoxyphenyl)hept-2-ynyl sulfide (APHS) and 250 μg/ml gentamicin). At 6, 12, 24 and 48 hrs after addition of the experimental treatments, 250 ul of supernatant was removed from each well, replaced with 250 ul of fresh DMEM w/0% FBS, and stored at −80° C. for subsequent LC-MS/MS analysis. After 48 hrs, the wells were washed with ice cold PBS three times and total cellular protein from the HTCF monolayer was collected for quantification and subsequent western blot analyses. The absolute quantity of protein within each culture well's HTCF monolayer was used as a means to standardize the relative secretion of lipid mediators by HTCFs into the culture well's supernatant.
This is a well-established method to determine the relative activity of cyclooxygenase, acetyl-COX2 and lipoxygenase biosynthetic pathways. In brief, the ratios of the integrated areas of the chromatographic peaks corresponding to each analyte and the integrated areas of the peaks corresponding to each analyte's internal standard (with known absolute quantity) are used to determine the relative quantity of each analyte in a given sample. After supernatant sample collection, 250 ul of methanol containing 100 μg of each deuterated internal standard was added. Samples were then vigorously vortexed and centrifuged at 10,000 g for 10 min before loading onto solid-phase extraction cartridges (Strata-X 33 um Polymeric Reversed Phase, 10 mg, Phenomenex 8B-S100-AAK), that were previously activated with 2 ml methanol and rinsed with 2 ml water. […] After washing with 5 ml water, extracts were eluted with 1 ml methanol. Solvent was then evaporated under vacuum in a SpeedVac centrifuge, and the extract was resuspended in 100 ul acetonitrile/water 60:40 (v/v). An aliquot of 20 ul was injected into the LC-MS/MS system for analysis. […] A Sciex Triple Quad 6500+ mass spectrometer with multiple reaction monitoring was used in negative ion mode. The chromatographic profile of the ion count for each m/z transition was monitored, and the area under the peaks (ion intensity vs elution time) was integrated using commercial software (MultiQuant, Sciex).

For experiment [2], the system named is human Tenon's capsule fibroblasts (HTCFs). Description: Collagen Contraction Assay I (delayed release fibroblast populated collagen lattice). The class given is cell-based. The following applies: gentamicin 1000 μg/ml and/or ASA 2000 μg/ml, 15 minutes twice daily, four day assay, vs vehicle control.
Protocol: The delayed release fibroblast populated collagen lattice model was used to assess inhibition of gel contraction [58] by ASA and gentamicin. […] Cell free collagen lattices were prepared identically, however to isolate the effects of HTCFs alone on collagen, constructs without HTCFs were cast as a negative control. The cell-collagen solution was pipetted gently to ensure homogenous distribution of HTCFs while avoiding the production of air bubbles, then 500 ul were pipetted into each well of a 24-well tray. Collagen constructs were allowed to polymerize at 37 C for 45 minutes before adding low serum culture media containing DMEM, 2% Fetal Bovine Serum (FBS), 1% penicillin/streptomycin (P/S).
Tension was allowed to build up within the tethered matrix at 37 C and 5% CO2 for 72 hours before a sterile spatula was used to detach each collagen construct from the edges of the culture well. Plates were then immediately scanned on a flat bed laser scanner and then once per hour for the first 12 hours, then daily for a total of 4 days. The surface area of each collagen construct was measured using ImageJ (NIH) and standardized against the baseline surface area measurement to express changes in area as a percentage of original surface area.
Vehicle control treatment solution comprised of DMEM with 2% FBS and 1% penicillin/streptomycin. The gentamicin treatment solution contained DMEM with 2% FBS, 1% penicillin/streptomycin and 1000 μg/ml gentamicin (w/vol) (Sigma-Aldrich, CAT. NO: G1397). The ASA treatment solution contained DMEM with 2% FBS, 1% penicillin/streptomycin and 2000 μg/ml ASA (w/vol) (Sigma-Aldrich, CAT. NO: A5376). The gentamicin-ASA combination treatment solution (Gent+ASA) contained DMEM with 2% FBS, 1% penicillin/streptomycin, 1000 μg/ml gentamicin (w/vol.) and 2000 μg/ml ASA (w/vo).
Culture media was removed from collagen constructs twice daily and replaced with one of the four treatment solutions for a duration of 15 minutes. […]
In experiment [3] the test system is HTCFs. As to the kind of experiment: Collagen Contraction Assay IV (AHGF induced, ASA and gentamicin vs mitomycin C). It is filed as cell-based, human. The following applies: ASA 1500 μg/ml and/or gentamicin 750 μg/ml; comparator mitomycin C 0.2 mg/ml for 4 minutes.
Protocol: (§1) The cell-collagen solution was pipetted gently to ensure homogenous distribution of HTCFs while avoiding the production of air bubbles, then 500 ul were pipetted into each well of a 24-well tray. Collagen constructs were allowed to polymerize at 37 C for 45 minutes before adding low serum culture media containing DMEM, 2% Fetal Bovine Serum (FBS), 1% penicillin/streptomycin (P/S).
Tension was allowed to build up within the tethered matrix at 37 C and 5% CO2 for 72 hours before a sterile spatula was used to detach each collagen construct from the edges of the culture well. Plates were then immediately scanned on a flat bed laser scanner and then periodically for a total of 4 days. The surface area of each collagen construct was measured using ImageJ (NIH) and standardized against the baseline surface area measurement to express changes in area as a percentage of original surface area.
In this modification of the assay, AHGFs are added to all culture media the collagen constructs are exposed to—from casting of the collagen constructs to the conclusion of contraction. The experimental treatment solutions—all also containing AHGFs—were added 30 minutes prior to detaching the collagen constructs from the culture wells and remained until experimental conclusion. […] DMEM w/2% FBS was added for the remainder of the experiment).
Experiment [4] concerns HTCFs. Description: Collagen Contraction Assay II (dose dependence). The class given is cell-based, human. The note with it: gentamicin alone, 100-1000 μg/ml, four days (FIG. 8A).
Protocol: as §1
Tension was allowed to build up within the tethered matrix at 37 C and 5% CO2 for 72 hours before a sterile spatula was used to detach each collagen construct from the edges of the culture well. Plates were then immediately scanned on a flat bed laser scanner once per 24 hours for a total of 4 days. The surface area of each collagen construct was measured using ImageJ (NIH) and standardized against the baseline surface area measurement to express changes in area as a percentage of original surface area.
The gentamicin concentrations assessed were delivered in a solution contained DMEM with 2% FBS, 1% penicillin/streptomycin and either 100, 250, 500, 750 or 100 μg/ml gentamicin (Sigma-Aldrich, CAT. NO: G1397). The ASA concentrations assessed were delivered in a solution of DMEM with 2% FBS, 1% penicillin/streptomycin and either 500, 1000 or 1500 μg/ml ASA (Sigma-Aldrich, CAT. NO: A5376). […]

In the case of `CCCCC[C@H](O)/C=C/C=C\C/C=C\C/C=C\CCCC(=O)O` [15-HETE, 15-hydroxyeicosatetraenoic acid], the “AHGF-induced expression of αSMA” value with αSMA (lipid mediator at 100 nM) was “significantly reduced”.

As to `CCCCC/C=C\C/C=C\C/C=C\C=C\[C@@H](O)CCCC(=O)O` [5-HETE, 5-hydroxyeicosatetraenoic acid], the “AHGF-induced expression of αSMA” value with αSMA (lipid mediator at 100 nM) and in the experiment on αSMA (lipid mediator at 1000 nM) was “significantly reduced” in each case.

In the case of `CC/C=C\CC(O)/C=C/C=C\C/C=C\C/C=C\C/C=C\CCC(=O)O` (stereo not shown) [17-OHDHA, 17-hydroxy-docosahexaenoic acid], the “AHGF-induced expression of αSMA” value in the experiment with αSMA (lipid mediator at 100 nM) and with αSMA (lipid mediator at 1000 nM) was “significantly reduced” each time.

For the compound gentamicin, the “secretion of PUFA precursors: AA, EPA and DHA” value in the experiment with HTCFs [1] is “significantly increase the secretion of PUFA precursors”. Further, the “HTCF mediated collagen contraction” value in experiment [2] is given as “did not affect collagen contraction until the second day of the four day assay”. The “AHGF induced, HTCF-mediated collagen contraction” value with HTCFs [3] is “no statistically significant effect on collagen contraction”. Moreover, in the experiment on HTCFs [4], the HTCF-mediated collagen contraction result is reported as “no significant treatment effects found; also recorded: no significant effect on HTCF-mediated collagen contraction”.

As to `CCCCC/C=C\C=C\C(O)C/C=C\C/C=C\CCCC(=O)O` (stereo not shown) [11-HETE, 11-hydroxyeicosatetraenoic acid], the “AHGF-induced αSMA expression” value with αSMA (lipid mediator at 10, 100, or 1000 nM) is recorded as “did not significantly affect AHGF-induced αSMA expression”.
